The record followed here is patent publication US7981879B2, “HIV integrase inhibitors” (Instituto di Ricerchi di Biologia Molecolare P. Angeletti …, priority 2005, dated 2011).

One experiment deals with HIV. Kind of experiment: Assay for inhibition of HIV replication (spread assay): acute HIV infection of T-lymphoid cells. Format: cell-based. To be noted: Human immunodeficiency virus 1, T-lymphoid, read-out: CIC95, inhibition of HIV replication. On the procedure: Assays for the inhibition of acute HIV infection of T-lymphoid cells (alternatively referred to herein as the “spread assay”) were conducted in accordance with Vacca, J. P. et al., Proc. Natl. Acad. Sci. USA 1994, 91: 4096. […] The other compounds in Table 1 were tested in the spread assay up to 1 micromolar, but specific IC95 values were not obtained; i.e., the IC95 values were greater than 1 micromolar. It is believed, however, that the IC95 values of these compounds would be less than about 50 micromolar.
Take `CN1Cn2c(nc(C(=O)NCc3ccc(F)cc3)c(O)c2=O)C12CCCCC2` [Compound 1, N-(4-fluorobenzyl)-3′-hydroxy-7′-methyl-4′-oxo-6′,7′-dihydro-4′H-spiro[cyclohexane-1,8′-imidazo[1,5-a]pyrimidine]-2′-carboxamide]: the IC95 was under 1000 nM.

Staying with this experiment, now noted: Human immunodeficiency virus 1; spread assay, T-lymphoid cells; read-out: CIC95, inhibition of HIV replication.
With `CC(=O)N(CC(C)C)C1CN(C)CCn2c1nc(C(=O)NCc1ccc(F)cc1)c(O)c2=O` (centres unmarked) [Compound 161, 10-[acetyl(isobutyl)amino]-N-(4-fluorobenzyl)-3-hydroxy-8-methyl-4-oxo-4,6,7,8,9,10-hexahydropyrimido[1,2-d][1,4]diazepine-2-carboxamide], the IC95 is under 1000 nM.

Turning to `CN1CCn2c(nc(C(=O)NCc3ccc(F)cc3)c(O)c2=O)C(N(C)S(C)(=O)=O)C1` (centres unmarked) [Compound 163, N-(4-fluorobenzyl)-3-hydroxy-8-methyl-10-[methyl(methylsulfonyl)amino]-4-oxo-4,6,7,8,9,10-hexahydropyrimido[1,2-d][1,4]diazepine-2-carboxamide], the IC95 was under 1000 nM.

In the case of `CC(C)CNC1CN(C)CCn2c1nc(C(=O)NCc1ccc(F)cc1)c(O)c2=O` (centres unmarked) [Compound 169, N-(4-fluorobenzyl)-3-hydroxy-10-(isobutylamino)-8-methyl-4-oxo-4,6,7,8,9,10-hexahydropyrimido[1,2-d][1,4]diazepine-2-carboxamide], the IC95 fell in the range of 1000 to 10000 nM.

Turning to `CC1(C)NS(=O)(=O)Cn2c1nc(C(=O)NCc1ccc(F)cc1)c(O)c2=O` [Compound 105, N-(4-fluorobenzyl)-3-hydroxy-9,9-dimethyl-4-oxo-8,9-dihydro-4H-pyrimido[2,1-d][1,2,5]thiadiazine-2-carboxamide 7,7-dioxide], the IC95 fell in the range of 1000 to 10000 nM.

Take `CN1CCn2c(nc(C(=O)NCc3ccc(F)cc3)c(O)c2=O)C(NC(=O)C(=O)N(C)C)C1` (centres unmarked) [Compound 160, N′-(2-{[(4-fluorobenzyl)amino]carbonyl}-3-hydroxy-8-methyl-4-oxo-4,6,7,8,9,10-hexahydropyrimido[1,2-d][1,4]diazepin-10-yl)-N,N-dimethylethanediamide]: the IC95 was under 1000 nM.

Consider `CSCC1NCCn2c1nc(C(=O)NCc1ccc(F)cc1)c(O)c2=O` (centres unmarked) [Compound 27, N-(4-fluorobenzyl)-3-hydroxy-9-[(methylthio)methyl]-4-oxo-6,7,8,9-tetrahydro-4H-pyrazino[1,2-a]pyramidine-2-carboxamide], for which the IC95 is under 1000 nM.

On to `O=C(NCc1ccc(F)cc1)c1nc2n(c(=O)c1O)CCNC21CCOCC1` [Compound 29, N-(4-fluorobenzyl)-3′-hydroxy-4′-oxo-2,3,5,6,7′,8′-hexahydro-4′H,6′H-spiro[pyran-4,9′-pyrazino[1,2-a]pyrimidine]-2′-carboxamide], for which the IC95 was under 1000 nM.

As to `CC(=O)N1CCn2c(nc(C(=O)NCc3ccc(F)cc3)c(O)c2=O)C1COCc1ccccc1` (centres unmarked) [Compound 12, 8-acetyl-9-[(benzyloxy)methyl]-N-(4-fluorobenzyl)-3-hydroxy-4-oxo-6,7,8,9-tetrahydro-4H-pyrazino[1,2-a]pyrimidine-2-carboxamide], the IC95 fell in the range of 1000 to 10000 nM.

For `CN1CCn2c(nc(C(=O)NCc3ccc(F)cc3)c(O)c2=O)C(N(C)Cc2ccccc2)C1` (centres unmarked) [Compound 159, 10-[benzyl(methyl)amino]-N-(4-fluorobenzyl)-3-hydroxy-8-methyl-4-oxo-4,6,7,8,9,10-hexahydropyrimido[1,2-d][1,4]diazepine-2-carboxamide], the IC95 lay within 1000 to 10000 nM.

Take `CN1Cn2c(nc(C(=O)NCc3ccc(F)cc3)c(O)c2=O)C1(C)C` [Compound 5, N-(4-fluorobenzyl)-3-hydroxy-7,8,8-trimethyl-4-oxo-4,6,7,8-tetrahydroimidazo[1,5-a]pyrimidine-2-carboxamide]: the IC95 was under 1000 nM.

For the compound `CN1CCCn2c(nc(C(=O)NCc3ccc(F)cc3)c(O)c2=O)C1(C)C` [Compound 176, N-(4-fluorobenzyl)-3-hydroxy-9,10,10-trimethyl-4-oxo-4,6,7,8,9,10-hexahydropyrimido[1,2-a][1,4]diazepine-2-carboxamide], the IC95 was under 1000 nM.

Consider `CC(=O)N(C)C1CN(C)CCn2c1nc(C(=O)NCc1ccc(F)cc1)c(O)c2=O` (centres unmarked) [Compound 170, 10-[acetyl(methyl)amino]-N-(4-fluorobenzyl)-3-hydroxy-8-methyl-4-oxo-4,6,7,8,9,10-hexahydropyrimido[1,2-d][1,4]diazepine-2-carboxamide], for which the IC95 is under 1000 nM.

In the case of `CN1CCn2c(nc(C(=O)NCc3ccc(F)cc3)c(O)c2=O)C1CS(C)(=O)=O` (centres unmarked) [Compound 28, N-(4-fluorobenzyl)-3-hydroxy-8-methyl-9-[(methylsulfonyl)methyl]-4-oxo-6,7,8,9-tetrahydro-4H-pyrazino[1,2-a]pyrimidine-2-carboxamide], the IC95 lay within 1000 to 10000 nM.

Regarding `COC(=O)N(C)C1CN(C)CCn2c1nc(C(=O)NCc1ccc(F)cc1)c(O)c2=O` (centres unmarked) [Compound 166, methyl (2-{[(4-fluorobenzyl)amino]carbonyl}-3-hydroxy-8-methyl-4-oxo-4,6,7,8,9,10-hexahydropyrimido[1,2-d][1,4]diazepin-10-yl)methylcarbamate], the IC95 was under 1000 nM.

`CN1CCn2c(nc(C(=O)NCc3ccc(F)cc3)c(O)c2=O)C1COCc1ccccc1` (centres unmarked) [Compound 11, 9-[(benzyloxy)methyl]-N-(4-fluorobenzyl)-3-hydroxy-8-methyl-4-oxo-6,7,8,9-tetrahydro-4H-pyrazino[l,2-a]pyrimidine-2-carboxamide]: the IC95 lay within 1000 to 10000 nM.

`CN1Cn2c(nc(C(=O)NCc3ccc(F)cc3S(C)(=O)=O)c(O)c2=O)C1(C)C` [Compound 2, N-[4-fluoro-2-(methylsulfonyl)benzyl]-3-hydroxy-7,8,8-trimethyl-4-oxo-4,6,7,8-tetrahydroimidazo[1,5-a]pyrimidine-2-carboxamide]: the IC95 was under 1000 nM.

With `CN(C)C(=O)CN1CCn2c(nc(C(=O)NCc3ccc(F)cc3)c(O)c2=O)C1(C)C` [Compound 64, 8-[2-(dimethylamino)-2-oxoethyl]-N-(4-fluorobenzyl)-3-hydroxy-9,9-dimethyl-4-oxo-6,7,8,9-tetrahydro-4H-pyrazino[1,2-a]pyrimidine-2-carboxamide], the IC95 lay within 1000 to 10000 nM.

Take `CC1(C)c2nc(C(=O)NCc3ccc(F)cc3)c(O)c(=O)n2CN1Cc1cccnc1` [Compound 6, N-(4-fluorobenzyl)-3-hydroxy-8,8-dimethyl-4-oxo-7-(pyridin-3-ylmethyl)-4,6,7,8-tetrahydroimidazo[1,5-a]pyrimidine-2-carboxamide]: the IC95 was under 1000 nM.

With `O=C(NCc1ccc(F)cc1)c1nc2n(c(=O)c1O)CCNC2COCc1ccccc1` (centres unmarked) [Compound 9, 9-[(benzyloxy)methyl]-N-(4-fluorobenzyl)-3-hydroxy-4-oxo-6,7,8,9-tetrahydro-4H-pyrazino[1,2-a]pyrimidine-2-carboxamide], the IC95 was under 1000 nM.

Take `CC1(C)NCCCn2c1nc(C(=O)NCc1ccc(F)cc1)c(O)c2=O` [Compound 175, N-(4-fluorobenzyl)-3-hydroxy-10,10-dimethyl-4-oxo-4,6,7,8,9,10-hexahydropyrimido[1,2-a][1,4]diazepine-2-carboxamide]: the IC95 is under 1000 nM.

For `CC1c2nc(C(=O)NCc3ccc(F)cc3)c(O)c(=O)n2CCN1C` (centres unmarked) [Compound 32, N-(4-fluorobenzyl)-3-hydroxy-8,9-dimethyl-4-oxo-6,7,8,9-tetrahydro-4H-pyrazino[1,2-a]pyrimidine-2-carboxamide], the IC95 was under 1000 nM.

Take `CN1CCn2c(nc(C(=O)NCc3ccc(F)cc3)c(O)c2=O)C12CCOCC2` [Compound 30, N-(4-fluorobenzyl)-3′-hydroxy-8′-methyl-4′-oxo-2,3,5,6,7′,8′-hexahydro-4′H,6′H-spiro[pyran-4,9′-pyrazino[1,2-a]pyrimidine]-2′-carboxamide]: the IC95 was under 1000 nM.
